Measurements taken from paper PMC11224111, “Optimizing the pharmacokinetics of an ^211At-labeled RGD peptide with an albumin-binding moiety via the administration of an albumin-binding inhibitor” (European Journal of Nuclear Medicine and Molecular Imaging, 2024).

Key:
[1] = Radiation dose estimation (MIRDcalc, adult male) from mouse biodistribution; set-up: species or system human; settings: for Absorbed dose estimates, Bone marrow / Absorbed dose estimates, Brain / Absorbed dose estimates, Heart / Absorbed dose estimates, Kidney / Absorbed dose estimates, L. intestine / Absorbed dose estimates, Liver / Absorbed dose estimates, Lung / Absorbed dose estimates, Muscle / Absorbed dose estimates, Pancreas / Absorbed dose estimates, S. intestine / Absorbed dose estimates, Spleen / Absorbed dose estimates, Stomach / Absorbed dose estimates, Thyroid / Absorbed dose estimates, Tumor: adult male, MIRDcalc
Excerpt: For estimation of the radiation dose absorbed, the blood, bone, and muscle mass of mice were assumed to be 8%, 5%, and 48% of body weight, respectively. The stomach was assumed to be distributed only in the wall, the heart, small intestine, and colon equally in the content and wall, and the colon was further assumed to be equally distributed in the left, right, and rectosigmoid. According to the International Commission on Radiological Protection, an equal distribution of radionuclide to trabecular and cortical bones was assumed. The non-decay-corrected activity from each source organ was converted into a percentage of the injected dose. The area under each organ’s activity curve from time 0 to infinity was calculated by extrapolation of biodistribution data. To correct for the different ratios of organ to total body weights in mouse and in human, we used the following organ correction factor (CR):
CR=organmass/totalbodymasshuman/organmass/totalbodymassmouse
Human organ weights and total body weights used data for adult males from previous reports. Tumor volume was converted from mouse-to-human total body weight ratio. According to the values, the radiation doses were calculated for an adult male patient using MIRDcalc v1.21 software (Society of Nuclear Medicine and Molecular Imaging). In the case of without administrating IPBA, calculation was performed using the data of a biodistribution study in our previous study.

[2] = tested on: U-87 MG tumor-bearing mice; test: Therapeutic experiments in U-87 MG tumor-bearing mice; type: in vivo; settings: for Relative body weight / Relative tumor volume: 1.85 MBq with IPBA; for Relative body weight: relative to initial body weight; for Relative tumor volume: relative to initial tumor volume
Procedure: To prepare tumor-bearing mice, 5 × 10^6 of U-87 MG cells were subcutaneously inoculated into the right shoulder of 4-week-old female BALB/c nude mice (13–15 g, Japan SLC, Inc.) as previously reported. At approximately 10-day postinoculation of U-87 MG cells, they were used for each experiment after tumor size reached 0.3–0.5 cm^3.
U-87 MG tumor-bearing mice were divided into three groups, [^211At]1 (1.85 MBq) (n = 6) injected group, only […] (1.85 MBq) and IPBA (n = 6) injected group, and vehicle and IPBA (n = 3) injected group as a control group. In IPBA injected group, it was administered at 10 molar equivalent of blood albumin at 1-h postinjection of [^211At]1 or vehicle. Tumor volume and body weight of mice were monitored 5 or 6 times weekly. Tumor size was measured with a slide caliper, and tumor volume was calculated using a formula: volume = 4/3 π (1/2 length × 1/2 width × 1/2 height). Tumor volume and body weight compared to the values on the day of treatment (relative tumor volume). The mice were euthanized humanely when body weight was less than 80% at baseline (day 0) or when the tumor weight reached more than 10% of body weight as the endpoint.

[3] = tested on: U-87 MG tumor-bearing mice; set-up: method as in PMID 37819452; settings: until 24-h postinjection, nonadministration of IPBA; cited from earlier work
[4] = tested on: U-87 MG tumor-bearing mice; set-up: method as in PMID 37819452; settings: 370 and 925 kBq without IPBA; cited from earlier work
[5] = set-up: method as in PMID 37819452; settings: normal mice; cited from earlier work
[6] = With IPBA, ratio of absorbed dose estimates
[7] = Without IPBA, calculated from data of ref 16
[8] = Without IPBA, ratio of absorbed dose estimates, calculated from data of ref 16

In the case of “Ga-DOTA-K([^211At]APBA)-c(RGDfK) [[^211At]1]”, the “Absorbed dose to tumor tissue” value ([1]; 1.85 MBq with IPBA) is reported as 1.34 mGy, the “Absorbed dose estimates, Bone marrow” value ([1]; With IPBA) is reported as 0.042 mGy/MBq and the “Absorbed dose estimates, Brain” value ([1]; With IPBA) is reported as 0.017 mGy/MBq. For the same substance, the “Absorbed dose estimates, Heart” value ([1]; With IPBA) was 0.080 mGy/MBq, the “Absorbed dose estimates, Kidney” value ([1]; With IPBA) was 0.266 mGy/MBq and the “Absorbed dose estimates, L. intestine” value ([1]; With IPBA) was 0.056 mGy/MBq. The “Absorbed dose estimates, Liver” value ([1]; With IPBA) was 0.109 mGy/MBq, the “Absorbed dose estimates, Lung” value ([1]; With IPBA) was 0.203 mGy/MBq and the “Absorbed dose estimates, Muscle” value ([1]; With IPBA) was 0.300 mGy/MBq. The “Absorbed dose estimates, Pancreas” value ([1]; With IPBA) was 0.087 mGy/MBq, the “Absorbed dose estimates, S. intestine” value ([1]; With IPBA) was 0.052 mGy/MBq and the “Absorbed dose estimates, Spleen” value ([1]; With IPBA) was 0.117 mGy/MBq. The “Absorbed dose estimates, Stomach” value ([1]; With IPBA) was 0.051 mGy/MBq, the “Absorbed dose estimates, Thyroid” value ([1]; With IPBA) was 0.032 mGy/MBq and the “Absorbed dose estimates, Tumor” value ([1]; With IPBA) was 0.727 mGy/MBq. For the same substance, the “Tumor/normal tissue ratio, Brain” value [1, 6] was 51.071, the “Tumor/normal tissue ratio, Heart” value [1, 6] was 10.712 and the “Tumor/normal tissue ratio, Kidney” value [1, 6] was 3.226. The “Tumor/normal tissue ratio, L. intestine” value [1, 6] was 15.349, the “Tumor/normal tissue ratio, Liver” value [1, 6] was 7.872 and the “Tumor/normal tissue ratio, Lung” value [1, 6] was 4.227. The “Tumor/normal tissue ratio, Muscle” value [1, 6] was 2.860, the “Tumor/normal tissue ratio, Pancreas” value [1, 6] was 9.873 and the “Tumor/normal tissue ratio, S. intestine” value [1, 6] was 16.437. For the same substance, the “Tumor/normal tissue ratio, Spleen” value [1, 6] was 7.333, the “Tumor/normal tissue ratio, Stomach” value [1, 6] was 16.791 and the “Tumor/normal tissue ratio, Thyroid” value [1, 6] was 26.729. For the same substance, the “Absorbed dose estimates, Bone marrow” value [1, 7] was 0.132 mGy/MBq, the “Absorbed dose estimates, Brain” value [1, 7] was 0.218 mGy/MBq and the “Absorbed dose estimates, Heart” value [1, 7] was 0.381 mGy/MBq. The “Absorbed dose estimates, Kidney” value [1, 7] was 0.427 mGy/MBq, the “Absorbed dose estimates, L. intestine” value [1, 7] was 0.193 mGy/MBq and the “Absorbed dose estimates, Liver” value [1, 7] was 0.319 mGy/MBq. The “Absorbed dose estimates, Lung” value [1, 7] was 0.976 mGy/MBq, the “Absorbed dose estimates, Muscle” value [1, 7] was 0.557 mGy/MBq and the “Absorbed dose estimates, Pancreas” value [1, 7] was 0.246 mGy/MBq. The “Absorbed dose estimates, S. intestine” value [1, 7] was 0.190 mGy/MBq, the “Absorbed dose estimates, Spleen” value [1, 7] was 0.354 mGy/MBq and the “Absorbed dose estimates, Stomach” value [1, 7] was 0.176 mGy/MBq. For the same substance, the “Absorbed dose estimates, Thyroid” value [1, 7] was 0.111 mGy/MBq, the “Absorbed dose estimates, Tumor” value [1, 7] was 0.858 mGy/MBq and the “Tumor/normal tissue ratio, Bone marrow” value [1, 8] was 6.500. For the same substance, the “Tumor/normal tissue ratio, Brain” value [1, 8] was 3.936, the “Tumor/normal tissue ratio, Heart” value [1, 8] was 2.252 and the “Tumor/normal tissue ratio, Kidney” value [1, 8] was 2.009. The “Tumor/normal tissue ratio, L. intestine” value [1, 8] was 4.446, the “Tumor/normal tissue ratio, Liver” value [1, 8] was 2.690 and the “Tumor/normal tissue ratio, Lung” value [1, 8] was 0.879. For the same substance, the “Tumor/normal tissue ratio, Muscle” value [1, 8] was 1.540, the “Tumor/normal tissue ratio, Pancreas” value [1, 8] was 3.488 and the “Tumor/normal tissue ratio, S. intestine” value [1, 8] was 4.516. The “Tumor/normal tissue ratio, Spleen” value [1, 8] was 2.424, the “Tumor/normal tissue ratio, Stomach” value [1, 8] was 4.875 and the “Tumor/normal tissue ratio, Thyroid” value [1, 8] was 7.730. The Body weight loss ([2]; 1.85 MBq followed by IPBA, temporary, recovered) was “less than 10%”, the Tumor growth ([2]; 1.85 MBq followed by IPBA, vs control group) was “significantly more inhibited than it was in the control group” and the Relative body weight ([2]; day 0 after injection) was 1.00 (0.00). For the same substance, the Relative tumor volume ([2]; day 0 after injection) was 1.00 (0.00), the Relative body weight ([2]; day 1 after injection) was 0.99 (0.02) and the Relative tumor volume ([2]; day 1 after injection) was 1.14 (0.11). The Relative body weight ([2]; day 2 after injection) was 0.99 (0.01), the Relative tumor volume ([2]; day 2 after injection) was 1.19 (0.09) and the Relative body weight ([2]; day 3 after injection) was 0.97 (0.03). The Relative tumor volume ([2]; day 3 after injection) was 1.23 (0.15), the Relative body weight ([2]; day 4 after injection) was 0.96 (0.02) and the Relative tumor volume ([2]; day 4 after injection) was 1.21 (0.18). For the same substance, the Relative body weight ([2]; day 6 after injection) was 0.93 (0.04), the Relative tumor volume ([2]; day 6 after injection) was 1.24 (0.17) and the Relative body weight ([2]; day 7 after injection) was 0.94 (0.03). The Relative tumor volume ([2]; day 7 after injection) was 1.25 (0.19), the “Time within which all mice died” value ([2]; 1.85 MBq without IPBA) was ≤ 9 days and the “Excretion, feces” value [3] was 2.75 ± 0.40 %IA. For the same substance, the “Excretion, urine” value [3] was 10.94 ± 2.66 %IA, the “Weight loss and death” value [4] was “a little weight loss, but no mice died” and the Toxicity [5] was “no serious hematotoxicity and weight loss”.
